From ChEMBL document CHEMBL1201862, “PubChem BioAssay data set” (2004)
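Following 48 hours of exposure in 96-well plates, responses at five concentrations were used to interpolate endpoints linearly. GI50 is the concentration that inhibits growth by half.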 Calls of active or inactive are those of the source. No stated cut-off is given here; in the data, active = GI50 up to about 1.1 µM and inactive = higher.

Key:
Assay in all cases: NCI-60 cell line screen, 48 h
Hs-578T = tested on: Hs-578T
HL-60 = tested on: HL-60
IGROV-1 = tested on: IGROV-1
HCT-116 = tested on: HCT-116
MOLT-4 = tested on: MOLT-4
KM12 = tested on: KM12
SN12C = tested on: SN12C
SK-OV-3 = tested on: SK-OV-3
HOP-92 = tested on: HOP-92
SF-539 = tested on: SF-539
OVCAR-3 = tested on: OVCAR-3
COLO 205 = tested on: COLO 205
HCT-15 = tested on: HCT-15
HT-29 = tested on: HT-29
UACC-257 = tested on: UACC-257
OVCAR-4 = tested on: OVCAR-4
OVCAR-8 = tested on: OVCAR-8
MDA-N = tested on: MDA-N
SK-MEL-28 = tested on: SK-MEL-28
SK-MEL-2 = tested on: SK-MEL-2
BT-549 = tested on: BT-549
EKVX = tested on: EKVX
OVCAR-5 = tested on: OVCAR-5
SK-MEL-5 = tested on: SK-MEL-5
MDA-MB-231 = tested on: MDA-MB-231
MCF7 = tested on: MCF7
CCRF-CEM = tested on: CCRF-CEM
NCI-H226 = tested on: NCI-H226
M14 = tested on: M14
DU-145 = tested on: DU-145
T47D = tested on: T47D
SW-620 = tested on: SW-620
SNB-19 = tested on: SNB-19
UACC-62 = tested on: UACC-62
A549 = tested on: A549
LOX IMVI = tested on: LOX IMVI
HOP-62 = tested on: HOP-62
NCI-H460 = tested on: NCI-H460
Malme-3M = tested on: Malme-3M
UO-31 = tested on: UO-31
PC-3 = tested on: PC-3
HCC 2998 = tested on: HCC 2998
MDA-MB-435 = tested on: MDA-MB-435
786-0 = tested on: 786-0
SF-295 = tested on: SF-295
ACHN = tested on: ACHN
SF-268 = tested on: SF-268
RXF 393 = tested on: RXF 393
CAKI-1 = tested on: CAKI-1
TK-10 = tested on: TK-10
RPMI-8226 = tested on: RPMI-8226
U-251 = tested on: U-251
NCI-H522 = tested on: NCI-H522
NCI/ADR-RES = tested on: NCI/ADR-RES
SNB-75 = tested on: SNB-75
NCI-H23 = tested on: NCI-H23
K562 = tested on: K562
A498 = tested on: A498

NCCCNCCCCN1CC1
GI50 (Hs-578T): 1.08 µM (active) | GI50 (HL-60): 0.601 µM (active) | GI50 (IGROV-1): 3.84 µM (inactive) | GI50 (HCT-116): 6.92 µM (inactive) | GI50 (MOLT-4): 1.26 µM (inactive) | GI50 (KM12): 6.98 µM (inactive) | GI50 (SN12C): 3.77 µM (inactive) | GI50 (SK-OV-3): 2.25 µM (inactive) | GI50 (HOP-92): 0.745 µM (active) | GI50 (SF-539): 0.836 µM (active) | GI50 (OVCAR-3): 1.6 µM (inactive) | GI50 (COLO 205): 1.02 µM (active) | GI50 (HCT-15): 8.41 µM | GI50 (HT-29): 7.05 µM (inactive) | GI50 (UACC-257): 1.39 µM (inactive) | GI50 (OVCAR-4): 0.259 µM (active) | GI50 (OVCAR-8): 2.07 µM (inactive) | GI50 (MDA-N): 3.63 µM (inactive) | GI50 (SK-MEL-28): 7.76 µM (inactive) | GI50 (SK-MEL-2): 1.69 µM (inactive) | GI50 (BT-549): 5.4 µM (inactive) | GI50 (EKVX): 4.61 µM (inactive) | GI50 (OVCAR-5): 12 µM (inactive) | GI50 (SK-MEL-5): 2.25 µM (inactive) | GI50 (MDA-MB-231): 1.4 µM (inactive) | GI50 (MCF7): 28.9 µM (inactive) | GI50 (CCRF-CEM): 0.836 µM (active) | GI50 (NCI-H226): 8.49 µM (inactive) | GI50 (M14): 11.4 µM (inactive) | GI50 (DU-145): 2.12 µM (inactive) | GI50 (T47D): 0.265 µM (active) | GI50 (SW-620): 2.31 µM (inactive) | GI50 (SNB-19): 6.55 µM (inactive) | GI50 (UACC-62): 3.99 µM (inactive) | GI50 (A549): 9.57 µM (inactive) | GI50 (LOX IMVI): 0.637 µM (active) | GI50 (HOP-62): 2.72 µM (inactive) | GI50 (NCI-H460): 16.7 µM (inactive) | GI50 (Malme-3M): 4.57 µM (inactive) | GI50 (UO-31): 7.18 µM (inactive) | GI50 (PC-3): 5.69 µM (inactive) | GI50 (HCC 2998): 7.06 µM (inactive) | GI50 (MDA-MB-435): 3.6 µM (inactive) | GI50 (786-0): 0.713 µM (active) | GI50 (SF-295): 20 µM (inactive) | GI50 (ACHN): 1.3 µM (inactive) | GI50 (SF-268): 1.99 µM (inactive) | GI50 (RXF 393): 0.705 µM (active) | GI50 (CAKI-1): 0.0486 µM (active) | GI50 (TK-10): 5.96 µM (inactive) | GI50 (RPMI-8226): 7.01 µM (inactive) | GI50 (U-251): 2.84 µM (inactive) | GI50 (NCI-H522): 2.81 µM (inactive) | GI50 (NCI/ADR-RES): 3.33 µM (inactive) | GI50 (SNB-75): 0.372 µM (active) | GI50 (NCI-H23): 6.7 µM (inactive) | GI50 (K562): 2.49 µM (inactive)

CC(C)=CCC/C(C)=C/CO [GERANIOL]
GI50 (Hs-578T): > 100 µM (inactive) | GI50 (HL-60): > 100 µM (inactive) | GI50 (IGROV-1): > 100 µM (inactive) | GI50 (HCT-116): > 100 µM (inactive) | GI50 (MOLT-4): > 100 µM (inactive) | GI50 (KM12): > 100 µM (inactive) | GI50 (SN12C): > 100 µM (inactive) | GI50 (SK-OV-3): > 100 µM (inactive) | GI50 (SF-539): > 100 µM (inactive) | GI50 (OVCAR-3): > 100 µM (inactive) | GI50 (COLO 205): > 100 µM (inactive) | GI50 (A498): > 100 µM (inactive) | GI50 (HCT-15): > 100 µM | GI50 (HT-29): > 100 µM (inactive) | GI50 (UACC-257): > 100 µM (inactive) | GI50 (OVCAR-4): > 100 µM (inactive) | GI50 (OVCAR-8): > 100 µM (inactive) | GI50 (MDA-N): > 100 µM (inactive) | GI50 (SK-MEL-28): > 100 µM (inactive) | GI50 (SK-MEL-2): > 100 µM (inactive) | GI50 (BT-549): > 100 µM (inactive) | GI50 (EKVX): > 100 µM (inactive) | GI50 (OVCAR-5): > 100 µM (inactive) | GI50 (SK-MEL-5): > 100 µM (inactive) | GI50 (MDA-MB-231): > 100 µM (inactive) | GI50 (MCF7): > 100 µM (inactive) | GI50 (CCRF-CEM): > 100 µM (inactive) | GI50 (NCI-H226): > 100 µM (inactive) | GI50 (M14): > 100 µM (inactive) | GI50 (DU-145): > 100 µM (inactive) | GI50 (T47D): > 100 µM (inactive) | GI50 (SW-620): > 100 µM (inactive) | GI50 (SNB-19): > 100 µM (inactive) | GI50 (UACC-62): > 100 µM (inactive) | GI50 (A549): > 100 µM (inactive) | GI50 (LOX IMVI): > 100 µM (inactive) | GI50 (HOP-62): > 100 µM (inactive) | GI50 (NCI-H460): > 100 µM (inactive) | GI50 (Malme-3M): > 100 µM (inactive) | GI50 (UO-31): > 100 µM (inactive) | GI50 (PC-3): > 100 µM (inactive) | GI50 (HCC 2998): > 100 µM (inactive) | GI50 (MDA-MB-435): > 100 µM (inactive) | GI50 (786-0): > 100 µM (inactive) | GI50 (SF-295): > 100 µM (inactive) | GI50 (ACHN): > 100 µM (inactive) | GI50 (SF-268): > 100 µM (inactive) | GI50 (CAKI-1): > 100 µM (inactive) | GI50 (TK-10): > 100 µM (inactive) | GI50 (RPMI-8226): > 100 µM (inactive) | GI50 (U-251): > 100 µM (inactive) | GI50 (NCI-H522): > 100 µM (inactive) | GI50 (NCI/ADR-RES): > 100 µM (inactive) | GI50 (NCI-H23): > 100 µM (inactive) | GI50 (K562): > 100 µM (inactive)

CCOC(=O)CO/N=C\C1=CC(=O)C2CC1C2(C)C (configuration not stated)
GI50 (Hs-578T): > 100 µM (inactive) | GI50 (HL-60): > 100 µM (inactive) | GI50 (IGROV-1): > 100 µM (inactive) | GI50 (HCT-116): > 100 µM (inactive) | GI50 (MOLT-4): > 100 µM (inactive) | GI50 (KM12): > 100 µM (inactive) | GI50 (SN12C): > 100 µM (inactive) | GI50 (SF-539): > 100 µM (inactive) | GI50 (OVCAR-3): > 100 µM (inactive) | GI50 (COLO 205): > 100 µM (inactive) | GI50 (A498): > 100 µM (inactive) | GI50 (HCT-15): > 100 µM | GI50 (HT-29): > 100 µM (inactive) | GI50 (UACC-257): > 100 µM (inactive) | GI50 (OVCAR-8): > 100 µM (inactive) | GI50 (MDA-N): > 100 µM (inactive) | GI50 (SK-MEL-28): > 100 µM (inactive) | GI50 (SK-MEL-2): > 100 µM (inactive) | GI50 (BT-549): > 100 µM (inactive) | GI50 (EKVX): > 100 µM (inactive) | GI50 (OVCAR-5): > 100 µM (inactive) | GI50 (SK-MEL-5): > 100 µM (inactive) | GI50 (MDA-MB-231): > 100 µM (inactive) | GI50 (MCF7): > 100 µM (inactive) | GI50 (CCRF-CEM): > 100 µM (inactive) | GI50 (NCI-H226): > 100 µM (inactive) | GI50 (M14): > 100 µM (inactive) | GI50 (DU-145): > 100 µM (inactive) | GI50 (T47D): > 100 µM (inactive) | GI50 (SW-620): > 100 µM (inactive) | GI50 (SNB-19): > 100 µM (inactive) | GI50 (UACC-62): > 100 µM (inactive) | GI50 (LOX IMVI): > 100 µM (inactive) | GI50 (Malme-3M): > 100 µM (inactive) | GI50 (UO-31): > 100 µM (inactive) | GI50 (PC-3): > 100 µM (inactive) | GI50 (MDA-MB-435): > 100 µM (inactive) | GI50 (786-0): > 100 µM (inactive) | GI50 (SF-295): > 100 µM (inactive) | GI50 (ACHN): > 100 µM (inactive) | GI50 (SF-268): > 100 µM (inactive) | GI50 (RXF 393): > 100 µM (inactive) | GI50 (CAKI-1): > 100 µM (inactive) | GI50 (TK-10): > 100 µM (inactive) | GI50 (RPMI-8226): > 100 µM (inactive) | GI50 (U-251): > 100 µM (inactive) | GI50 (NCI/ADR-RES): > 100 µM (inactive) | GI50 (SNB-75): 30.1 µM (inactive) | GI50 (NCI-H23): > 100 µM (inactive) | GI50 (K562): > 100 µM (inactive)
